# According to patent US20040063730A1, “Pharmacuetical formulation comprising puyrazolo[4,-3-d]pyrimidines and antithrombotics, calcium antagonists, or prostaglandins or prostaglandin derivatives” (priority 2000, published 2004):
compound,measurement,value
"CCCc1nn(C)c2c(NCc3ccc(OC)c(Cl)c3)nc(CCC(=O)O)nc12 [Example 2, 3-[7-(3-chloro-4-methoxybenzylamino)-1-methyl-3-propyl-1H-pyrazolo-[4,3-d]pyrimidin-5-yl]propionic acid]",melting point,178 °C
